The results in this text go back to ChEMBL document CHEMBL1201862, “PubChem BioAssay data set” (2004).

SMILES strings stand for the structures.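 Test compounds were applied to cells in 96-well plates for 48 hours at 5 doses. GI50 marks 50% less growth.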 The source made the active and inactive calls. No stated cut-off is given here; in the data, active = GI50 up to about 1.1 µM and inactive = higher.

Experiment in all cases: NCI tumour cell line growth inhibition, 48 h
Test [1] concerns RPMI-8226.
Test [2] relates to HCT-15.
Test [3] relates to KM12.
The test system of test [4] is HCT-116.
Test [5] deals with MDA-MB-435.
Test [6] has as its system SF-295.
The subject of test [7] is SF-268.
In test [8] the test system is OVCAR-3.
Test [9] has as its system MDA-MB-231.
Test [10] has as its system TK-10.
Test [11] relates to SK-MEL-5.
The subject of test [12] is A498.
Test [13] relates to IGROV-1.
In test [14] the test system is ACHN.
Test [15] has as its system CCRF-CEM.
Test [16] relates to PC-3.
Test [17] relates to COLO 205.
In test [18] the test system is NCI-H460.
Test [19] has as its system HL-60.
Test [20] has as its system HOP-92.

As to `COc1cc2c(cc1O)C(=O)O[C@@H]1CC=C3CCN(C)[C@H]3[C@H]21`, the GI50 is > 25 µM (inactive) in test [1]; more than 25 µM in test [2]; > 25 µM (inactive) in test [3]; > 25 µM (inactive) in [4]; > 25 µM (inactive) in test [5]; > 25 µM (inactive) in test [6]. Further, the GI50 in [7], in test [8], in [9], in test [10], in [11] and in [12] was > 25 µM (inactive) throughout. The GI50 in test [13], in [14], in test [15] and in [16] was > 25 µM (inactive) in each case.

On to `[O-][S+](Nc1ccccc1)c1ccc(Cl)cc1` (stereo unspecified), for which the GI50 in test [1] is > 100 µM (inactive); in test [2], 75.2 µM; in [3], 17.5 µM (inactive); in test [4], 61.5 µM (inactive); in test [5] it was 31.4 µM (inactive); in test [6], > 100 µM (inactive). The GI50 in test [7] was 16.2 µM (inactive); in test [17], > 100 µM (inactive); in test [8] it was > 100 µM (inactive); in test [18] it was 56 µM (inactive); in test [9], > 100 µM (inactive); in test [10], > 100 µM (inactive). The GI50 in test [11] is 35.9 µM (inactive); in [13], 24.7 µM (inactive); in test [19], > 100 µM (inactive); in test [14], > 100 µM (inactive); in test [15], 89.9 µM (inactive).

On to `COC(=O)/C=C(C)/C=C\COC1CCCCO1` (stereo unspecified), for which the GI50 is > 100 µM (inactive) in test [1]; more than 100 µM in test [2]; > 100 µM (inactive) in test [3]; > 100 µM (inactive) in [4]; > 100 µM (inactive) in [5]; > 100 µM (inactive) in test [6]. The GI50 in test [7], in test [17], in test [8], in [18], in test [9] and in test [10] was > 100 µM (inactive) each time. For the same molecule, the GI50 in [11], in test [12], in test [13], in [19], in test [14] and in [15] was > 100 µM (inactive) throughout. In test [16], the GI50 was > 100 µM (inactive).

For `Cc1cc(C)c(C2CC(O)C(CO)O2)cc1C` (stereo unspecified), the GI50 was > 100 µM (inactive) in test [1]; more than 100 µM in test [2]; > 100 µM (inactive) in test [3]; > 100 µM (inactive) in [4]; > 100 µM (inactive) in [5]; > 100 µM (inactive) in test [6]. The GI50 was > 100 µM (inactive) in test [7]; > 10 µM (inactive) in test [17]; > 100 µM (inactive) in [8]; > 100 µM (inactive) in test [18]; > 100 µM (inactive) in test [9]; > 100 µM (inactive) in test [10]. The GI50 in test [11], in test [13], in [14], in [15] and in test [16] was > 100 µM (inactive) in each case.

Take `CO[C@@]12C[C@@H](CNC(=O)c3cc(Br)c[nH]3)O[C@@H]1NC(=O)N2`: the GI50 was > 100 µM (inactive) in test [1]; more than 100 µM in test [2]; > 100 µM (inactive) in test [3]; > 100 µM (inactive) in [4]; > 100 µM (inactive) in test [5]; > 100 µM (inactive) in test [6]. In addition, the GI50 in [7], in [17], in test [8], in test [18], in test [9] and in test [10] was > 100 µM (inactive) throughout. Further, the GI50 in [11], in test [12], in test [13], in [14], in test [15] and in test [16] was > 100 µM (inactive) each time.

With `Nc1c(-c2ccccc2)c2ccc([N+](=O)[O-])cc2c(=O)n1-c1cccc(C(=O)O)c1`, the GI50 was > 100 µM (inactive) in test [1]; more than 100 µM in [2]; > 100 µM (inactive) in [3]; > 100 µM (inactive) in [4]; > 100 µM (inactive) in test [5]; > 100 µM (inactive) in [6]. For the same molecule, the GI50 in test [7], in [8], in [18], in test [9], in test [10] and in test [11] was > 100 µM (inactive) in each case. For the same molecule, the GI50 in test [12] is > 100 µM (inactive); in test [13], > 100 µM (inactive); in test [19], 38.3 µM (inactive); in [14], > 100 µM (inactive); in [15], 94.6 µM (inactive); in test [16], > 100 µM (inactive).

With `CC(C)=CC1C(COC(=O)c2cc3c(cc2Cl)OCO3)C1(C)C` (stereo unspecified), the GI50 in [2] was 29 µM; in test [3], 28.2 µM (inactive); in test [4] it was 33.4 µM (inactive); in [5], 28 µM (inactive); in test [6], 34.4 µM (inactive); in test [7], 19.3 µM (inactive). Moreover, the GI50 was 23.8 µM (inactive) in test [20]; 25.2 µM (inactive) in test [8]; 33 µM (inactive) in test [18]; 73.6 µM (inactive) in [9]; > 100 µM (inactive) in test [10]; 20 µM (inactive) in test [11]. Besides, the GI50 in test [12] is 31.5 µM (inactive); in test [13] it was 45.2 µM (inactive); in test [19], 20.9 µM (inactive); in test [14] it was 33.1 µM (inactive); in test [15], 26.9 µM (inactive); in [16] it was 35.5 µM (inactive).

Regarding `CCOP(=O)(O)C1C(CO)OC(n2ccc(=O)[nH]c2=O)C1O` (stereo unspecified), the GI50 in [1] is > 100 µM (inactive); in test [2], more than 100 µM; in [3] it was > 100 µM (inactive); in test [4], > 100 µM (inactive); in [6], > 100 µM (inactive); in test [7] it was > 100 µM (inactive). Besides, the GI50 in test [20], in [8], in test [18], in test [9], in test [10] and in test [11] was > 100 µM (inactive) in each case. Besides, the GI50 in test [12], in test [13], in test [19], in [14], in test [15] and in test [16] was > 100 µM (inactive) in each case.

Take `CC(O)C(NC(=O)C(CS)NC(=O)C(CO)NC(=O)C(CCCCN)NC(=O)C(Cc1c[nH]c2ccccc12)NC(=O)C(Cc1ccc(O)cc1)NC(=O)C(CS)NC(=O)C(N)Cc1ccccc1)C(N)=O` (stereo unspecified): the GI50 in test [1] is > 25 µM (inactive); in [2], more than 25 µM; in test [3] it was > 25 µM (inactive); in test [4] it was > 25 µM (inactive); in test [5], > 25 µM (inactive); in test [6], > 25 µM (inactive). The GI50 in test [7] was > 25 µM (inactive); in test [17] it was > 25 µM (inactive); in [8], > 25 µM (inactive); in test [18] it was 22.2 µM (inactive); in test [9], > 25 µM (inactive); in [11], > 25 µM (inactive). The GI50 in test [12], in test [13], in test [19], in [14], in test [15] and in test [16] was > 25 µM (inactive) each time.

On to `COC(=O)C12CCCN1CCC2`, for which the GI50 in test [2] was more than 100 µM; in [3], > 100 µM (inactive); in test [4], > 100 µM (inactive); in test [5] it was > 100 µM (inactive); in [6], > 100 µM (inactive); in [7], > 100 µM (inactive). The GI50 in test [17], in test [8], in test [18], in [9], in test [10] and in test [11] was > 100 µM (inactive) each time. Besides, the GI50 in test [14], in test [15] and in [16] was > 100 µM (inactive) throughout.

For `CC(=O)OC[C@H]1O[C@@H](O[C@H]2[C@H](OC(C)=O)C=CO[C@@H]2COC(C)=O)C(OC(C)=O)[C@H]2OC(C)(C)O[C@H]21` (stereo partly specified), the GI50 in [2] was more than 100 µM; in [3], > 100 µM (inactive); in test [4] it was > 100 µM (inactive); in test [5], 48.1 µM (inactive); in [6], > 100 µM (inactive); in test [7], > 100 µM (inactive). Besides, the GI50 in [20] was 52.8 µM (inactive); in test [17] it was > 100 µM (inactive); in test [8], > 100 µM (inactive); in test [18], > 100 µM (inactive); in [9], > 100 µM (inactive); in test [10], > 100 µM (inactive). Further, the GI50 is 58.9 µM (inactive) in test [11]; > 100 µM (inactive) in [13]; > 100 µM (inactive) in [14]; 62.8 µM (inactive) in [15]; > 100 µM (inactive) in [16].
